The assay relates to rat anxiety behavior induced by high-dose intake of caffeine. The experiment in a line: Elevated plus-maze test, Test 1: CBD against caffeine-induced anxiety behavior. Format: in vivo, wistar rats. As to the method:
Test Animals: 50 SPF male wistar rats (180-200 g). Feeding Conditions: SPF animal houses, free feeding, 12 h light/12 h darkness.
Each CBD administration group was also intragastrically administrated with a corresponding dose of a CBD soybean oil solution at the same time, and then an elevated plus-maze test was conducted within 30 minutes after administration.
Elevated Plus-maze (EMP) Test: A maze was cross-shaped and consists of 2 open arms (OAs), two closed arms (CAs) and a central platform. The maze was fixed on a support, 50 cm above the ground. A camera was placed above the central platform. The behaviors of rats were recorded and analyzed through a computer. The test was conducted in a quiet shaded condition. Before the test, the rats to be tested were placed in one rat cage. After freely exploring for 5 minutes, the rats were quickly placed on the central platform of the EMP. The observation test was started immediately after release. Each rat was tested for five minutes. After each rat was tested, the maze was thoroughly cleaned with a towel dipped in clean water and low-concentration ethanol. After the ethanol volatilizes and diffuses, the test on the next rat began.
(1) Open arm entry (OE): the number of entries into any open arm was based on the fact that four paws of each rat were located within the arms, and when any paw was completely withdrawn from the arms halfway, the current entry event was deemed as being completed.
(2) Open arm time (OT): it was measured in second.
(3) Closed arm entry (CE): the number of entries into any closed arm, which was determined based on the same standard as OE.
(4) Closed arm time (CT): it was measured in second.
(5) Calculation of the proportion of the number of entries into the open arm (OE %): namely, OE/(OE+CE)×100%.
(6) Proportion of residence time in the open arms (OT %): namely, OT/(OT+CT)×100%. OE % and OT % were used as indexes for evaluating the anxiety state of rats.
The data was expressed with x±s. One-way analysis of variance (one way ANOVA) was used to compare multi-sample means, and t test was used for inter-group comparison.

The mark [1] stands for this setting: CBD 1 mg/kg intragastric together with 60 mg/kg caffeine.
Where [2] appears, read: CBD 10 mg/kg intragastric together with 60 mg/kg caffeine.
[3] abbreviates: CBD 100 mg/kg intragastric together with 60 mg/kg caffeine.
Setting [4] is: caffeine model group, 60 mg/kg caffeine intragastric, no CBD.

Consider `C=C(C)[C@@H]1CCC(C)=C[C@H]1c1c(O)cc(CCCCC)cc1O` [CBD, Cannabidiol], for which the “OE (open arm entry)” value (CBD 1 mg/kg in soybean oil intragastric together with 60 mg/kg caffeine) is 3.2 ± 0.45 times. In addition, under setting [1], the “CE (closed arm entry)” value worked out at 7.0 ± 0.92 times, the “CT (closed arm time)” value is reported as 244 ± 5.14 s, the “OE % (proportion of entries into the open arm)” value (shortened to “OE %”) is given as 31.37% and the “OT % (proportion of residence time in the open arms)” value (shortened to “OT %”) is 19.24%. Besides, the “OT (open arm time)” value under setting [1] was found to be 58.1 ± 3.30 s. Besides, under setting [2], the “CE (closed arm entry)” value is 5.3 ± 1.07 times, the “CT (closed arm time)” value turned out to be 214 ± 4.01 s, the “OE %” value came to 47.52% and the “OE (open arm entry)” value came to 4.8 ± 0.91 times. Also, under setting [2], the “OT %” value is 28.43% and the “OT (open arm time)” value stood at 85 ± 2.07 s. For the same molecule, under setting [3], the “CE (closed arm entry)” value worked out at 4.5 ± 0.91 times, the “CT (closed arm time)” value came to 201 ± 3.05 s, the “OE %” value was 54.00% and the “OE (open arm entry)” value turned out to be 5.4 ± 0.25 times. Also, under setting [3], the “OT %” value amounted to 33.22% and the “OT (open arm time)” value was determined as 100 ± 1.32 s. Also, under “CBD 1-100 mg/kg intragastric together with 60 mg/kg caffeine”, the “effect on the anxiety behavior of rats (in words)” value is recorded as “significant effect on inhibiting the anxiety behavior”.
As to `Cn1c(=O)c2c(ncn2C)n(C)c1=O` [Caffeine], under setting [4], the “CE (closed arm entry)” value came to 7.8 ± 0.11 times, the “CT (closed arm time)” value amounted to 253 ± 5.09 s, the “OE %” value is on record as 21.21% and the “OT (open arm time)” value amounted to 42.9 ± 1.89 s. The “OE (open arm entry)” value (caffeine model group, 60 mg/kg caffeine saline solution intragastric, no CBD, EPM within 30 min, 5 min test) turned out to be 2.1 ± 0.78 times.
